According to patent US11376216B2, “Periodontal disease therapy” (New York University, priority 2018, dated 2022):

How the values were obtained:
pre-osteoclastic cells = assay: Viability/proliferation of osteoclast progenitors (cytotoxicity of 4C); type: cell-based, mouse; details: at up to 100 μM; without RANKL and M-CSF
Protocol: (§1) (A) “4C” structure with NMR in dimethyl sulfoxide (DMSO). (B) Purity by high-performance liquid chromatography (HPLC). Ficoll processed non-adherent bone marrow cells were seeded at 20,000 per well in 96-well-plate and stimulated with the indicated concentration of cytokines (macrophage-colony stimulating factor (M-CSF), 30 ng ml^−1 from day 1; receptor activator of nuclear factor kappa-B ligand (RANKL), 50 ng ml^−1 from day 3); fresh cytokines were added every other day. (C) No cytotoxicity of 4C to the proliferation of osteoclast (OC) progenitors (without RANKL and M-CSF). (D-E) Representative TRAP staining images and analysis of WT mouse bone marrow in vitro OC cultures treated with 1 mM succinate or control in the presence of SucnR1 antagonist 4C at indicated concentrations. **p<0.01, *** p<0.001 according to Bonferroni post hoc test after ANOVA, N=5.
(§2) The structure of the synthetic antagonist of SucnR1 4C was authenticated using nuclear magnetic resonance spectroscopy (FIG. 2A) with a purity of 98.002% according to high-performance liquid chromatography (FIG. 2B).

[1] = test system: osteoclast culture derived from ficoll processed mouse bone marrow cells; assay: Succinate-stimulated osteoclastogenesis in bone marrow osteoclast cultures (TRAP staining); type: cell-based; details: 1 mM succinate, in vitro
Protocol: as §1, §2

[2] = target: T1, Human Succinate Receptor 1 (Homo sapiens, UniProt Q9BXA5); assay: Human Succinate Receptor 1 AequoScreen cell line calcium signal upon succinate activation; type: cell-based; details: succinate 500 μM, read-out: inhibition of SucnR1 activation by succinate
T1 sequence (Q9BXA5 1-334): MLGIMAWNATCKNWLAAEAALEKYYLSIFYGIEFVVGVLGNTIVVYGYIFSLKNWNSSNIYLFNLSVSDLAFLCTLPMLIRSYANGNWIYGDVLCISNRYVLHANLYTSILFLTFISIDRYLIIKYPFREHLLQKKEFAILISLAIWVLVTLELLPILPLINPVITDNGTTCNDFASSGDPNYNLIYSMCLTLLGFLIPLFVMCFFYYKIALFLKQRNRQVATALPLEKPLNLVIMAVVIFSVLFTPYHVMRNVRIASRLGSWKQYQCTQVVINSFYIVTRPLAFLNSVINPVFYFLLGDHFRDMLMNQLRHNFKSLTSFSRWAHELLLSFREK
Protocol: Human Succinate Receptor 1 AequoScreen® Cell Line (PerkinElmer ES-744-A) was used to assess the activity of SUCNR1 upon activation by ligand (succinate 500 μM) in the presence and absence of antagonists. Cells were seeded at 5,000 cells/well for 24 hour before the calcium dye was added. Forty-five minutes later, the antagonists were added at indicated concentrations. Fifteen minutes later, the ligand was added and the fluorescent signal (EX/EM: 485/525) was measured immediately on a plate reader. A) The efficacy of 3 newly synthesized compounds in comparison with 4C at the same concentration. (*p<0.05, **p<0.001 by t-test in comparison to ligand alone post One-Way ANOVA) B) Dose effects of the compound 7a at various concentrations. (*p<0.05, **p<0.001 in comparison to […] by t-test post One-Way ANOVA).
Structure-activity relationship studies were performed using the compounds depicted in FIG. 7. The structure and purity of the compounds were confirmed via HPLC and NMR. At the same concentration of 4C, these antagonists inhibited the activation of SucnR1 by succinate in vitro (FIG. 8A).

Structure (SMILES)	inhibitory effect on the viability of pre-osteoclastic cells (pre-osteoclastic cells)	reduction of succinate stimulation of osteoclastogenesis ([1]; 4C at 0.1 μM)	reduction of succinate stimulation of osteoclastogenesis ([1]; 4C at 10 μM)	inhibition at 20 µM [2]
C[C@H](NC(=O)Cc1ccc(-c2ccc3cccnc3n2)cc1)c1ccc(-c2ccc(F)c(C(F)(F)F)c2)cc1 [4C]	no inhibitory effect	started to reduce the stimulation of succinate	completely erase the simulation of osteoclastogenesis by succinate	
CNC(=O)Cc1ccc(-c2ccc3cccnc3n2)cc1 [Cpd-7a]				50%
